In PubChem BioAssay AID2060489 (Molecular Pharmacology Branch, DTP, NCI, 2025):

Tested on: 922993-354-T-J3-PDC complex spheroids, viability
Test: Anticancer human tumor 922993-354-T-J3-PDC patient-derived endometrial carcinoma cell line growth inhibition [GQUAD]
Conditions: for IC50: curve of first compound; for viability, T/C: stronger effect = lower value
Method in brief: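 Viability of tumor cells grown as complex spheroids with endothelial and stromal cells, exposed to drug combinations. Top concentration at or near clinical Cmax (else 10 microM), diluted in half-log increments.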

[1] = second compound 0.0316 µM, first compound 0.0316 µM
[2] = second compound 0.0316 µM, first compound 0.1 µM
[3] = second compound 0.0316 µM, first compound 0.316 µM
[4] = second compound 0.0316 µM, first compound 1 µM
[5] = second compound 0.0316 µM, first compound 3.16 µM
[6] = second compound 0.0316 µM, first compound 10 µM
[7] = second compound 0.1 µM, first compound 0.0316 µM
[8] = second compound 0.1 µM, first compound 0.1 µM
[9] = second compound 0.1 µM, first compound 0.316 µM
[10] = second compound 0.1 µM, first compound 1 µM
[11] = second compound 0.1 µM, first compound 3.16 µM
[12] = second compound 0.1 µM, first compound 10 µM
[13] = second compound 0.316 µM, first compound 0.0316 µM
[14] = second compound 0.316 µM, first compound 0.1 µM
[15] = second compound 0.316 µM, first compound 0.316 µM
[16] = second compound 0.316 µM, first compound 1 µM
[17] = second compound 0.316 µM, first compound 3.16 µM
[18] = second compound 0.316 µM, first compound 10 µM
[19] = second compound 1 µM, first compound 0.0316 µM
[20] = second compound 1 µM, first compound 0.1 µM
[21] = second compound 1 µM, first compound 0.316 µM
[22] = second compound 1 µM, first compound 1 µM
[23] = second compound 1 µM, first compound 3.16 µM
[24] = second compound 1 µM, first compound 10 µM
[25] = second compound 3.16 µM, first compound 0.0316 µM
[26] = second compound 3.16 µM, first compound 0.1 µM
[27] = second compound 3.16 µM, first compound 0.316 µM
[28] = second compound 3.16 µM, first compound 1 µM
[29] = second compound 3.16 µM, first compound 3.16 µM
[30] = second compound 3.16 µM, first compound 10 µM
[31] = second compound 10 µM, first compound 0.0316 µM
[32] = second compound 10 µM, first compound 0.1 µM
[33] = second compound 10 µM, first compound 0.316 µM
[34] = second compound 10 µM, first compound 1 µM
[35] = second compound 10 µM, first compound 3.16 µM
[36] = second compound 10 µM, first compound 10 µM
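Also: spheroids exposed to compounds for seven days.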
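For viability, T/C in this document: 100% = DMSO vehicle control viability.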

## COc1cc(C2c3cc4c(cc3C(OC3OC5COC(C)OC5C(O)C3O)C3COC(=O)C23)OCO4)cc(OC)c1O (stereo unspecified) + Cc1[nH]c2ccc(F)cc2c1-c1nc2c3cccnc3c3ncccc3c2[nH]1
Second compound 0.0316 µM
  IC50: > 10 µM
Second compound 0.1 µM
  IC50: > 10 µM
Second compound 0.316 µM
  IC50: > 10 µM
Second compound 1 µM
  IC50: > 10 µM
Second compound 3.16 µM
  IC50: > 10 µM
Second compound 10 µM
  IC50: > 10 µM
[1]
  viability, T/C: 95.3%
[2]
  viability, T/C: 89.1%
[3]
  viability, T/C: 83.8%
[4]
  viability, T/C: 99.4%
[5]
  viability, T/C: 76.6%
[6]
  viability, T/C: 61.3%
[7]
  viability, T/C: 113%
[8]
  viability, T/C: 97.5%
[9]
  viability, T/C: 92.2%
[10]
  viability, T/C: 92.6%
[11]
  viability, T/C: 76.2%
[12]
  viability, T/C: 62.7%
[13]
  viability, T/C: 110%
[14]
  viability, T/C: 109%
[15]
  viability, T/C: 84.1%
[16]
  viability, T/C: 110%
[17]
  viability, T/C: 56.4%
[18]
  viability, T/C: 61.8%
[19]
  viability, T/C: 138%
[20]
  viability, T/C: 121%
[21]
  viability, T/C: 96.6%
[22]
  viability, T/C: 75.8%
[23]
  viability, T/C: 72.4%
[24]
  viability, T/C: 71.4%
[25]
  viability, T/C: 125%
[26]
  viability, T/C: 109%
[27]
  viability, T/C: 76.2%
[28]
  viability, T/C: 97.6%
[29]
  viability, T/C: 72.3%
[30]
  viability, T/C: 60.5%
[31]
  viability, T/C: 111%
[32]
  viability, T/C: 97.7%
[33]
  viability, T/C: 79.1%
[34]
  viability, T/C: 82.8%
[35]
  viability, T/C: 74.2%
[36]
  viability, T/C: 58.8%

## Cc1cccc(N(C)C(=O)C2C(O)CCN2c2nc(C)cc(C(F)(F)F)c2C#N)c1 (stereo unspecified) + Cc1[nH]c2ccc(F)cc2c1-c1nc2c3cccnc3c3ncccc3c2[nH]1
Second compound 0.0316 µM
  IC50: > 10 µM
Second compound 0.1 µM
  IC50: > 10 µM
Second compound 0.316 µM
  IC50: > 10 µM
Second compound 1 µM
  IC50: > 10 µM
Second compound 3.16 µM
  IC50: > 10 µM
Second compound 10 µM
  IC50: > 10 µM
[1]
  viability, T/C: 111%
[2]
  viability, T/C: 112%
[3]
  viability, T/C: 80.8%
[4]
  viability, T/C: 94%
[5]
  viability, T/C: 120%
[6]
  viability, T/C: 82.9%
[7]
  viability, T/C: 108%
[8]
  viability, T/C: 122%
[9]
  viability, T/C: 97.7%
[10]
  viability, T/C: 135%
[11]
  viability, T/C: 120%
[12]
  viability, T/C: 126%
[13]
  viability, T/C: 90.7%
[14]
  viability, T/C: 112%
[15]
  viability, T/C: 74.7%
[16]
  viability, T/C: 104%
[17]
  viability, T/C: 87.9%
[18]
  viability, T/C: 99.3%
[19]
  viability, T/C: 112%
[20]
  viability, T/C: 96.5%
[21]
  viability, T/C: 104%
[22]
  viability, T/C: 114%
[23]
  viability, T/C: 102%
[24]
  viability, T/C: 97.3%
[25]
  viability, T/C: 123%
[26]
  viability, T/C: 121%
[27]
  viability, T/C: 103%
[28]
  viability, T/C: 96.9%
[29]
  viability, T/C: 129%
[30]
  viability, T/C: 73.8%
[31]
  viability, T/C: 87%
[32]
  viability, T/C: 94.3%
[33]
  viability, T/C: 109%
[34]
  viability, T/C: 111%
[35]
  viability, T/C: 95.4%
[36]
  viability, T/C: 123%

## COc1ccc([C@@H](O)c2cc(-c3ncnc4cc(N5CCOCC5)ccc34)c(F)cc2Cl)nn1 + CN(C)c1ccc(Nc2c3ccc(NC(=O)CCN4CCCC4)cc3nc3cc(NC(=O)CCN4CCCC4)ccc23)cc1
Second compound 0.0316 µM
  IC50: > 10 µM
Second compound 0.1 µM
  IC50: > 10 µM
Second compound 0.316 µM
  IC50: > 10 µM
Second compound 1 µM
  IC50: > 10 µM
Second compound 3.16 µM
  IC50: > 10 µM
Second compound 10 µM
  IC50: > 10 µM
[1]
  viability, T/C: 101%
[2]
  viability, T/C: 111%
[3]
  viability, T/C: 103%
[4]
  viability, T/C: 111%
[5]
  viability, T/C: 104%
[6]
  viability, T/C: 82.3%
[7]
  viability, T/C: 105%
[8]
  viability, T/C: 99.5%
[9]
  viability, T/C: 89.7%
[10]
  viability, T/C: 88.2%
[11]
  viability, T/C: 84.8%
[12]
  viability, T/C: 71.8%
[13]
  viability, T/C: 76.6%
[14]
  viability, T/C: 103%
[15]
  viability, T/C: 83.6%
[16]
  viability, T/C: 79%
[17]
  viability, T/C: 86.9%
[18]
  viability, T/C: 71.4%
[19]
  viability, T/C: 119%
[20]
  viability, T/C: 106%
[21]
  viability, T/C: 104%
[22]
  viability, T/C: 101%
[23]
  viability, T/C: 88.4%
[24]
  viability, T/C: 79.2%
[25]
  viability, T/C: 81.5%
[26]
  viability, T/C: 101%
[27]
  viability, T/C: 120%
[28]
  viability, T/C: 105%
[29]
  viability, T/C: 97.7%
[30]
  viability, T/C: 75.1%
[31]
  viability, T/C: 105%
[32]
  viability, T/C: 110%
[33]
  viability, T/C: 134%
[34]
  viability, T/C: 88.6%
[35]
  viability, T/C: 109%
[36]
  viability, T/C: 83.1%
